{
  "source": "patent US20130190368A1",
  "about": "“NOVEL POLYMORPHS OF FEBUXOSTAT” (HETERO RESEARCH FOUNDATION, priority 2010, published 2013)",
  "origin": "cited, not measured here",
  "conditions": "compared to allopurinol",
  "data": [
    {"smiles": "Cc1nc(-c2ccc(OCC(C)C)c(C#N)c2)sc1C(=O)O", "note": "[febuxostat, 2-[3-cyano-4-(2-methylpropoxy)phenyl]-4-methyl-5-thiazolecarboxylic acid]", "values": [
      {"measurement": "amount of initial gout flares or surface area of gout tophi", "result": "no difference"},
      {"measurement": "individuals with decreased levels of uric acid", "result": "more individuals treated with febuxostat had decreased levels of uric acid"}
    ]}
  ]
}
